Data reported in patent US10426806B1, “Anti-obesity effect of Borago officinalis linn. extracts to prevent and treat metabolic disorders” (priority 2018, dated 2019).

How the values were obtained:
Assay type in all cases: in vivo, Wistar rats
high fat diet rats = test: Preventive study: high fat diet rats given extract or standard drug for 8 weeks; conditions: for Average Food intake / Average body weight / Cholestrol / HDL / LDL / Tri-glyceride / VLDL: 8 weeks preventive study; for FBG (fasting blood glucose level): preventive study; for Cholestrol / HDL / LDL / Tri-glyceride / VLDL: serum
Procedure: (§1) Thirty male Wistar rats (210-220 g) were obtained from the animal house facility of Dr. Panjwani Center for Molecular Medicine and Drug Research (ICCBS). All animals were kept under standard conditions of temperature and humidity with a 12 h light/dark cycle. This study was approved by the Ethical Committee of International Center for Chemical and Biological Sciences (Protocol #: 2015-0011). After one week of acclimation period, rats were randomly divided into two groups. The control group was fed with normal diet (D12450B, Research Diets, USA), whereas the other groups were fed with high-fat diet (D12451, Research Diets, USA) for a period of 16-week. After 10 weeks, biochemical parameters were evaluated regularly to establish whether the model has developed the symptoms of weight gain and metabolic syndrome.
After a period of 16 weeks, the group of rats on high fat diet (HF) have developed symptoms of metabolic disorders, along with insulin resistance. The HF fed rats were then sub-divided into […] groups of three rats each, i.e. Group 1 (PA), Control; animals in this group received LFD, and distilled water. Group 2, Pathological control (PC); animals in this group received HFD, and distilled water. Group 3 (PO); animals in this group received HFD, and standard drug Orlistat (100 mg/kg/day). Group 4 (PS); animals in this group received HFD, and standard drug Sibutramine (5 mg/kg/day). Group 5 (PC1); animals in this group received HFD, and B. officinalis extract (150 mg/kg/day). Group 6 (PC2); animals in this group received HFD, and B. officinalis extract (300 mg/kg/day).
Body weights were recorded weekly throughout the experiment. The food intake was calculated by using following formula, as described by Ghezzi et al, 2012:
[…] Liver and pancreas samples were prepared and stained with hematoxylin and eosin; the liver was excised and fixed in buffered formalin. The sectioned liver tissue segments were stained with hematoxylin-eosin (H-E), and observed under light microscope.
(§2) Blood glucose, serum insulin, total cholesterol, triglycerides, HDL, LDL, very low density lipoproteins […], urea, creatinine, aspartate aminotransferase […], alkaline phosphatase (ALP), serum glutamic pyruvic transaminase (SGPT), and direct and total bilirubin were estimated. Fasting blood glucose levels were measured using glucometer (AccuChek Performa, Australia). Fasting insulin levels were quantified using ultra sensitive rat insulin ELISA kit (Crystal Chem, Downers Grove, USA). Insulin sensitivity was evaluated using Homeostatic Model Assessment (HOMA). Serum total cholesterol, triglycerides, HDL, LDL, VLDL, urea, creatinine, AST, ALP, SGPT, and direct and total bilirubin were analyzed using automatic analyzer (Hitachi, Roche Diagnostics 902, Tokyo, Japan).

[1] = test system: high-fat diet induced-obese rats; test: Therapeutic study: high-fat diet induced-obese rats treated for 12 weeks; conditions: for Average Food intake / Average body weight / FBG (fasting blood glucose level) / Cholesterol / HDL / LDL / Triglycerides / VLDL: obese rats, 12 weeks of treatment; for Average food intake of rats: TO, TS, TC1 and TC2 treated groups, 12 weeks, HFD; for Cholesterol / HDL / LDL / Triglycerides / VLDL: serum
Procedure: as §1
(§3) Whereas for therapeutic studies the animal groups were further sub-divided into following groups which are as follow: Group 1 (TA), Control; animals in this group received LFD, and distilled water. Group 2 (TC), Pathological control; animals in this group received HFD, and distilled water. Groups 3 (TO), High fat diet induced obese animals in this group received standard drug Orlistat (100 mg/kg/day). Group 4 (TS): High fat diet induced obese animals in this group received standard drug Sibutramine (5 mg/kg/day). Group 5 (TC1): High fat diet induced obese animals in this group received B. officinalis extract (150 mg/kg/day). Group 6 (TC2): High fat diet induced obese animals in this group received B. officinalis extract (300 mg/kg/day).
Body weights were recorded weekly throughout the experiment. The food intake was calculated by using following formula, as described by Ghezzi et al, 2012: […]
(§4) For biochemical analysis after 16 weeks of experimental diet, the blood samples were taken from the tail vein after an overnight fast, whereas after 12 weeks of treatment period, rats were subjected to anesthesia, and blood was drawn by cardiac puncture. Liver and pancreas samples were prepared and stained with hematoxylin and eosin; the liver was excised and fixed in buffered formalin. The sectioned liver tissue segments were stained with hematoxylin-eosin (H-E), and observed under light microscope.
as §2
In therapeutic study, we investigated the capacity of B. officinalis extracts to reduce the weight of high fat diet induced obese rats, and to improve the key biochemical parameters in metabolic disorders.
Obese rats were treated with Borago officinalis extracts, at two different doses i.e. 150 mg/kg, and 300 mg/kg of body weight for 12 weeks. During these 12 weeks they were also fed HFD.

[2] = test system: high-fat diet induced-obese rats; test: Evaluation of renal and liver toxicity after 12 weeks of treatment (therapeutic study); conditions: 5 mg/kg (TS)
Procedure: as §3, §4, §2
Evaluation of Renal and Liver Toxicity of Borago officinalis Extract

## CCCCCCCCCCC[C@@H](C[C@@H]1OC(=O)[C@H]1CCCCCC)OC(=O)[C@H](CC(C)C)NC=O [Orlistat]
High fat diet rats; 100 mg/kg (PO)
  Average Food intake: 4.23 g/100 g
  Average body weight: 256 ± 0.10 g
  FBG (fasting blood glucose level): 79 ± 1.04 mg/dL
  Cholestrol: 68 ± 3.66 mg/dL
  HDL: 52 ± 3.04 mg/dL
  LDL: 15 ± 0.41 mg/dL
  Tri-glyceride: 52 ± 0.16 mg/dL
  VLDL: 9 ± 0.87 mg/dL
[1]; 100 mg/kg (TO)
  Average Food intake: 3.18 g/100 g
  Average body weight: 356 ± 4.63 g
  FBG (fasting blood glucose level): 84 ± 0.17 mg/dL
  Cholesterol: 68 ± 3.66 mg/dL
  HDL: 52 ± 3.04 mg/dL
  LDL: 15 ± 0.41 mg/dL
  Triglycerides: 52 ± 0.16 mg/dL
  VLDL: 9 ± 0.87 mg/dL
[1]
  Average food intake of rats: decrease

## CC(C)CC(N(C)C)C1(c2ccc(Cl)cc2)CCC1 (stereo not shown) [Sibutramine]
High fat diet rats; 5 mg/kg (PS)
  Average Food intake: 5.34 g/100 g
  Average body weight: 251 ± 0.11 g
  FBG (fasting blood glucose level): 76 ± 2.12 mg/dL
  Cholestrol: 65 ± 0.13 mg/dL
  HDL: 59 ± 0.16 mg/dL
  LDL: 14 ± 0.68 mg/dL
  Tri-glyceride: 51 ± 0.19 mg/dL
  VLDL: 9 ± 0.8 mg/dL
[1]; 5 mg/kg (TS)
  Average Food intake: 4.20 g/100 g
  Average body weight: 361 ± 6.43 g
  FBG (fasting blood glucose level): 80 ± 0.12 mg/dL
  Cholesterol: 65 ± 0.13 mg/dL
  HDL: 59 ± 0.16 mg/dL
  LDL: 14 ± 0.68 mg/dL
  Triglycerides: 51 ± 0.19 mg/dL
  VLDL: 9 ± 0.8 mg/dL
[1]
  Average food intake of rats: decrease
[2]
  ALP: 116 ± 0.14 U/L
  ALT: 85 ± 0.009 U/L
  Creatinine: 0.49 ± 0.02 mg/dL
  SGPT: 38 ± 3.34 U/L
  Total Bilirubin: 0.15 ± 0.01 mg/dL
  Urea: 31 ± 2.42 mg/dL
